Common to all, as to assay type: cell-based
The subject of test [1] is NCI-H226 cells. In words: NCI-H226 proliferation assay (Wuxi AppTec). The settings on record: Homo sapiens, 168 h, 7 days, CellTiter-Glo, top dose 10, 3-fold dilution, 9 doses. Here is the method:
[…] Proliferation Assay (From Wuxi AppTec CO.):
Day −1: Seeding cells • (1) Equilibrate cell culture medium to 37° C. • (2) Remove and discard the culture medium. • (3) Briefly rinse the cell layer with PBS to remove all traces of serum that contains […]. • (4) Add 2-3 mL of Trypsin-EDTA solution to flask and observe cells under an inverted microscope until cell layer is dispersed. • (5) Add 6-8 mL of growth medium to terminate the digestion of Trypsin/EDTA. • (6) Centrifuge the mixture (Trypsin EDTA and the growth medium) at 1000 rpm for 5 mins. • (7) Discard the supernatant, suspend the cell precipitation with the fresh growth medium, then take 1 mL the cell suspension to count cells with Vi-cell XR cell viability analyzer. • (8) Adjust the cell density to 500 cells/well for 384-well plates. • (9) Add 50 µL/well volume cell suspension to the assay plate. • (10) Add […] media to the control columns. • (11) Incubate the plate at 37° C., 5% CO2 for overnight. Day 0: Compounds treatment • (1) Add cpds to each well by Tecan HP D300E. The top dose is […], 3-fold dilution and 9 doses. DMSO final concentration will be normalized to 0.2%. • (2) Incubate the assay plate at 37° C., 5% CO2 for 7 days. Day 7: Plate read • (1) Equilibrate the assay plate to the room temperature for nearly 30 minutes. • (2) Add […] CellTiter-Glo reagent to each well and shake the plate for 1 min, incubate 10 min and keep them from light. • (3) Detect the plate by EnVision. Data analysis:
Max: Average of the DMSO group Min: Average of medium group.

Test [2] relates to NCI-H226 cells. Kind of test: NCI-H226 proliferation assay (in house). Conditions: Homo sapiens, 120 h, 5 days, Cell TiterGlo, 20-point 1:2 dilution from 20 μM. Summed up: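 Viability by CellTiter-Glo luminescence after 5-day compound exposure at 37 °C, 5% CO2. Compounds added 24 h post-seeding (500 cells/well, RPMI 1640 with 10% FBS) as 20-point, 2-fold series from 20 μM final, triplicate wells.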
(ATP-based viability assays read luminescence as a measure of living cells.)

Test [3] deals with transcriptional activity of TEADs. In words: TEAD reporter assay (MCF7 TEAD-LUC reporter cells). The settings on record: Homo sapiens, 24 hours, BrightGlo luminescence. Summed up:
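Luminescence (BrightGlo) was read after 24 h of compound treatment at 37 °C, 5 % CO2. Cells had been seeded at 5,000 per well in DMEM with 10 % FBS and insulin and rested 24 h first. Dosing used 20 points, 1:2 dilution from 20 μM final, triplicates.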
(Reporter assays use an easily measured gene product as a stand-in for the process of interest.)

The term IC50 denotes the point on the concentration scale where inhibition reaches its midpoint. Higher therefore signals weaker potency in that assay. With `C=CC(=O)N1CC=C(c2nccnc2Nc2ccc(C(F)(F)F)nc2)CC1` [Example 55, 1-(4-(3-((6-(trifluoromethyl)pyridin-3-yl)amino)pyrazin-2-yl)-3,6-dihydropyridin-1(2H)-yl)prop-2-en-1-one], the values for the 50% inhibitory concentration (IC50) (with NCI-H226 cells [1]; in the test with NCI-H226 cells [2]; in test [3]) were 0.058 µM, 0.03 µM and 0.004 µM, respectively.
Taken in the same sequence, the figures for `C=C(F)C(=O)N1CC(Nc2nccnc2Nc2ccc(C(F)(F)F)nc2)C1` [Example 63, 2-fluoro-1-(3-((3-((6-(trifluoromethyl)pyridin-3-yl)amino)pyrazin-2-yl)amino)azetidin-1-yl)prop-2-en-1-one] were 1.7 µM, 1.5 µM and 0.0048 µM.
As for `C=CC(=O)N1CCN(c2nccnc2NC2C3CC2C3C(F)(F)F)CC1` (stereo not drawn) [Example 67, 1-(4-(3-((4-(trifluoromethyl)bicyclo[1.1.1]pentan-2-yl)amino)pyrazin-2-yl)piperazin-1-yl)prop-2-en-1-one], the IC50 in the test on NCI-H226 cells [1] is 1.45 µM; with NCI-H226 cells [2], 0.079 µM; in test [3], 0.0029 µM.
The corresponding values for `C=CC(=O)N1CCN(c2nccnc2Oc2ccc(OC(F)F)cc2)CC1` [Example 71, 1-(4-(3-(4-(difluoromethoxy)phenoxy)pyrazin-2-yl)piperazin-1-yl)prop-2-en-1-one] are 0.007 µM, 0.008 µM and 0.0013 µM.
With `C=CC(=O)N1CCN(c2nccnc2Oc2ccc(OC(F)(F)F)cc2)CC1` [Example 72, 1-(4-(3-(4-(trifluoromethoxy)phenoxy)pyrazin-2-yl)piperazin-1-yl)prop-2-en-1-one], the IC50 with NCI-H226 cells [1] was found to be 0.011 µM; in the test with NCI-H226 cells [2], 0.005 µM; in test [3] it was 0.00052 µM.
The corresponding values for `C=CC(=O)N1CC=C(c2nccnc2Oc2ccc(C(F)(F)F)cn2)CC1` [Example 74, 1-(4-(3-((5-(trifluoromethyl)pyridin-2-yl)oxy)pyrazin-2-yl)-3,6-dihydropyridin-1(2H)-yl)prop-2-en-1-one] are 0.121 µM, 0.449 µM and 0.0024 µM.
Taken in the same sequence, the figures for `C=C(F)C(=O)N1CCN(c2nccnc2Oc2ccc(C(F)(F)F)nc2)CC1` [Example 78, 2-fluoro-1-(4-(3-((6-(trifluoromethyl)pyridin-3-yl)oxy)pyrazin-2-yl)piperazin-1-yl)prop-2-en-1-one] were 0.009 µM, 0.032 µM and 0.0021 µM.
The corresponding values for `C=C(F)C(=O)N1CC=C(c2nccnc2Oc2ccc(C(F)(F)F)nc2)CC1` [Example 85, 2-fluoro-1-(4-(3-((6-(trifluoromethyl)pyridin-3-yl)oxy)pyrazin-2-yl)-3,6-dihydropyridin-1(2H)-yl)prop-2-en-1-one] are 0.011 µM, 0.016 µM and 0.0016 µM.
On to `C=CC(=O)N1CCN(c2nccnc2Oc2cnc(C(F)(F)F)nc2)CC1` [Example 87, 1-(4-(3-((2-(trifluoromethyl)pyrimidin-5-yl)oxy)pyrazin-2-yl)piperazin-1-yl)prop-2-en-1-one], for which the values for the IC50 (in the test with NCI-H226 cells [1]; in the test with NCI-H226 cells [2]; in test [3]) were 0.047 µM, 0.025 µM and 0.0014 µM, respectively.
The corresponding values for `C=C(F)C(=O)N1CCN(c2nccnc2Oc2cnc(C(F)(F)F)nc2)CC1` [Example 88, 2-fluoro-1-(4-(3-((2-(trifluoromethyl)pyrimidin-5-yl)oxy)pyrazin-2-yl)piperazin-1-yl)prop-2-en-1-one] are 0.027 µM, 0.047 µM and 0.0019 µM.
Taken in the same sequence, the figures for `C=CC(=O)N1CC=C(c2nccnc2Oc2cnc(C(F)(F)F)nc2)CC1` [Example 89, 1-(4-(3-((2-(trifluoromethyl)pyrimidin-5-yl)oxy)pyrazin-2-yl)-3,6-dihydropyridin-1(2H)-yl)prop-2-en-1-one] were 0.033 µM, 0.164 µM and 0.0018 µM.
Taken in the same sequence, the figures for `C=C(F)C(=O)N1CC=C(c2nccnc2Oc2cnc(C(F)(F)F)nc2)CC1` [Example 90, 2-fluoro-1-(4-(3-((2-(trifluoromethyl)pyrimidin-5-yl)oxy)pyrazin-2-yl)-3,6-dihydropyridin-1(2H)-yl)prop-2-en-1-one] were 0.031 µM, 0.033 µM and 0.0059 µM.
As to `C=CC(=O)N1CCN(c2nccnc2OC2CCC(C(F)(F)F)CC2)CC1` (stereo not drawn) [Example 94, 1-(4-(3-((4-(trifluoromethyl)cyclohexyl)oxy)pyrazin-2-yl)piperazin-1-yl)prop-2-en-1-one], the results for the 50% inhibitory concentration (IC50) (in the test with NCI-H226 cells [1]; in the test with NCI-H226 cells [2]; in test [3]) were 0.017 µM, 0.018 µM and 0.00084 µM, respectively.
Regarding `C=CC(=O)N1CCN(c2nccnc2C(=O)c2ccc(C(F)(F)F)nc2)CC1` [Example 96, 1-(4-(3-(6-(trifluoromethyl)nicotinoyl)pyrazin-2-yl)piperazin-1-yl)prop-2-en-1-one], the 50% inhibitory concentration (IC50) in the test with NCI-H226 cells [1] was 0.089 µM; with NCI-H226 cells [2], 0.012 µM; in test [3] it was 0.0036 µM.
The corresponding values for `C=CC(=O)N1CCN(c2nccnc2N2CCC(C(F)(F)F)CC2)CC1` [Example 105, 1-(4-(3-(4-(trifluoromethyl)piperidin-1-yl)pyrazin-2-yl)piperazin-1-yl)prop-2-en-1-one] are 0.05 µM, 0.004 µM and 0.0011 µM.
Taken in the same sequence, the figures for `C=CC(=O)N1CCN(c2nccnc2N2CC(c3ccc(F)cc3)C2)CC1` [Example 107, 1-(4-(3-(3-(4-fluorophenyl)azetidin-1-yl)pyrazin-2-yl)piperazin-1-yl)prop-2-en-1-one] were 0.049 µM, 0.018 µM and 0.0007 µM.
Taken in the same sequence, the figures for `C=CC(=O)N1CCN(c2nccnc2N2CC3(CC(C(F)(F)F)C3)C2)CC1` [Example 110, 1-(4-(3-(6-(trifluoromethyl)-2-azaspiro[3.3]heptan-2-yl)pyrazin-2-yl)piperazin-1-yl)prop-2-en-1-one] were 0.046 µM, 0.067 µM and 0.003 µM.
For `C=CC(=O)N1CCN(c2nc(C)c(C)nc2Nc2ccc(C(F)(F)F)nc2)CC1` [Example 113, 1-(4-(5,6-dimethyl-3-((6-(trifluoromethyl)pyridin-3-yl)amino)pyrazin-2-yl)piperazin-1-yl)prop-2-en-1-one], the 50% inhibitory concentration (IC50) was 0.032 µM in the test with NCI-H226 cells [1], 0.04 µM in the test on NCI-H226 cells [2] and 0.0027 µM in test [3].
The corresponding values for `C=CC(=O)N1CCN(c2ccnnc2Nc2ccc(C(F)(F)F)cc2)CC1` [Example 119, 1-(4-(3-((4-(trifluoromethyl)phenyl)amino)pyridazin-4-yl)piperazin-1-yl)prop-2-en-1-one] are 0.042 µM, 0.012 µM and 0.0032 µM.
The corresponding values for `C=CC(=O)N1CCC(c2cncnc2Oc2ccc(C(F)(F)F)nc2)CC1` [Example 126, 1-(4-(4-((6-(trifluoromethyl)pyridin-3-yl)oxy)pyrimidin-5-yl)piperidin-1-yl)prop-2-en-1-one] are 0.339 µM, 0.364 µM and 0.0191 µM.
Taken in the same sequence, the figures for `C=CC(=O)N1CCN(c2nc(C)ncc2Nc2ccc(C(F)(F)F)cc2)CC1` [Example 128, 1-(4-(2-methyl-5-((4-(trifluoromethyl)phenyl)amino)pyrimidin-4-yl)piperazin-1-yl)prop-2-en-1-one] were 0.082 µM, 0.179 µM and 0.0016 µM.

The record behind these values is US20250206722A1, “SMALL MOLECULE INHIBITORS OF TEA DOMAIN FAMILY MEMBERS” (The Scripps Research Institute, priority 2022, published 2025).
